From patent US20110195900A1, “PEPTIDIC PTH RECEPTOR AGONISTS” (FERRING B.V., priority 2008, published 2011)
Like-named read-outs stand apart in the source and are kept apart here. Non-standard residues stand in square brackets, D forms with d. Residues, ends and D or L forms follow the SMILES beside them. 1Nal = N[C@@H](Cc1cccc2ccccc12)C(=O)O; β3hI = CC[C@H](C)[C@H](N)CC(=O)O; β3hR = N=C(N)NCCC[C@H](N)CC(=O)O; β3hK = NCCCC[C@H](N)CC(=O)O; hSer = N[C@@H](CCO)C(=O)O; Nle = CCCC[C@H](N)C(=O)O; Aib = CC(C)(N)C(=O)O; βAla = NCCC(=O)O

Tests used:
human PTH-2 receptor = target: T1, human PTH-2 receptor (Homo sapiens, UniProt P49190); assay: Luciferase-based transcriptional reporter gene assay for selectivity; type: cell-based
T1 construct: expressed in transfected cells
T1 sequence (P49190 25-550): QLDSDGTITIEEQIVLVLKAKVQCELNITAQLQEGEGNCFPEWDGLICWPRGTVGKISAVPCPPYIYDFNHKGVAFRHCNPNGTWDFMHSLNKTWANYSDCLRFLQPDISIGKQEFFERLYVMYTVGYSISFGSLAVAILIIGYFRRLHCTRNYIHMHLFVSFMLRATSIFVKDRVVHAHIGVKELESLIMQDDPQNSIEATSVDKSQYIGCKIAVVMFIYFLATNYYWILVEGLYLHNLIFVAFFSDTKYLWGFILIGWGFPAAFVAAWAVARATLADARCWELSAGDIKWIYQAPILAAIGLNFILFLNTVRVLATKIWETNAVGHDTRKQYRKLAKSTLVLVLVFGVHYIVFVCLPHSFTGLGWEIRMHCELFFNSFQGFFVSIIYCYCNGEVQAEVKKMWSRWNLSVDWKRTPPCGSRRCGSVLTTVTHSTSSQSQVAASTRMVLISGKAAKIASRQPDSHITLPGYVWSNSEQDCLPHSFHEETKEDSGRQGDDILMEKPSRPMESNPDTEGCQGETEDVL
Method in brief: (§1)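 HEK-293 cells transiently transfected with SV40-driven human PTH-1 receptor and CRE-luciferase reporter, exposed to serial compound dilutions for 4-5 h, then lysed for luciferase readout; efficacy and EC50 by non-linear regression, PTH (1-34) as internal control, n≥3. Selectivity measured in analogous human PTH-2 receptor luciferase reporter assays.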

human PTH-1 receptor = target: T2, human PTH-1 receptor (Homo sapiens, UniProt Q03431); assay: Reporter gene assay (CRE-luciferase) for agonist activity in transiently transfected HEK-293 cells; type: cell-based; details: for hPTHR-2/hPTHR-1 / Selectivity hPTHR-2/hPTHR-1: ratio of EC50 values; for hPTHR-2/hPTHR-1: selectivity for hPTH-1 receptor over hPTH-2 receptor
T2 construct: expressed in transfected cells; host or cells: HEK-293
T2 sequence (Q03431 27-593): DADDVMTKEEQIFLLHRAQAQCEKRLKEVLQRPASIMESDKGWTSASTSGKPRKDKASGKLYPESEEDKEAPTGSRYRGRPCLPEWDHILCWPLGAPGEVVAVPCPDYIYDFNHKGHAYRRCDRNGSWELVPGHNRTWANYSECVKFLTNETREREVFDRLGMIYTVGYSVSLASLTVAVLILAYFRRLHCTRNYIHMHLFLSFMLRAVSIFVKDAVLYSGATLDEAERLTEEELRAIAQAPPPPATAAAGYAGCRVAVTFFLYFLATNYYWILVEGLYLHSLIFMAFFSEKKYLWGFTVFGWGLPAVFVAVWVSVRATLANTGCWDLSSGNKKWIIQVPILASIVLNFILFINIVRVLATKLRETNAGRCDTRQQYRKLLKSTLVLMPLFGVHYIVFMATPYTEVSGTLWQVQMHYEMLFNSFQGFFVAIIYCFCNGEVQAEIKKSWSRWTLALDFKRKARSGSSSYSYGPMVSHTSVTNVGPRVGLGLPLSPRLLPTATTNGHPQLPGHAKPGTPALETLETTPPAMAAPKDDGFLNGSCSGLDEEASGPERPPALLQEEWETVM
Method in brief: as §1

EC50 (human PTH-2 receptor; Table 3, luciferase reporter gene assay, read-out: hPTHR-2 EC50) [nM] | EC50 (human PTH-1 receptor; Table 3, HEK-293 cells, CRE-luciferase, 4-5 hours exposure, read-out: hPTHR-1 EC50) [nM] | EC50 (human PTH-2 receptor; Table 4 comparison data, luciferase reporter gene assay, read-out: hPTHR-2 EC50) [nM] | EC50 (human PTH-1 receptor; Table 4 comparison data, HEK-293 cells, CRE-luciferase, read-out: hPTHR-1 EC50) [nM] | SMILES | EC50 (human PTH-2 receptor) [nM] | EC50 (human PTH-1 receptor) [nM] | hPTHR-2/hPTHR-1 (human PTH-1 receptor; Table 3) | Selectivity hPTHR-2/hPTHR-1 (human PTH-1 receptor; Table 4 comparison data)
 |  |  |  | CCCC[C@H](NC(=O)[C@H](CC(C)C)NC(=O)[C@H](CCC(N)=O)NC(=O)[C@@H](NC(=O)[C@H](CCC(=O)O)NC(=O)[C@H](CO)NC(=O)[C@@H](NC(=O)C(C)(C)N)C(C)C)[C@@H](C)CC)C(=O)N[C@@H](Cc1c[nH]cn1)C(=O)N[C@@H](CC(N)=O)C(=O)N[C@@H](CC(C)C)C(=O)NCC(=O)N[C@@H](CCCCN)C(=O)N[C@@H](Cc1c[nH]cn1)C(=O)N[C@@H](CC(C)C)C(=O)N[C@@H](CC(N)=O)C(=O)N[C@@H](CO)C(=O)N[C@@H](CCCNC(=N)N)CC(=O)N[C@@H](CCC(=O)O)C(=O)N[C@@H](CCCNC(=N)N)C(=O)N[C@H](C(=O)N[C@@H](CCC(=O)O)C(=O)N[C@@H](Cc1cccc2ccccc12)C(=O)N[C@@H](CC(C)C)C(=O)N[C@@H](CCCNC(=N)N)C(=O)N[C@@H](CCCCN)C(=O)N[C@@H](CC(C)C)C(=O)N[C@@H](CC(C)C)C(=O)N[C@@H](CCC(N)=O)C(=O)N[C@@H](CC(=O)O)C(=O)N[C@H](C(=O)N[C@@H](Cc1c[nH]cn1)C(=O)N[C@@H](CC(N)=O)C(=O)N[C@@H](Cc1ccccc1)C(N)=O)C(C)C)C(C)C [SEQ ID NO: 43, [Aib^1, Nle^8, β-hArg^18,1-Nal^23, Leu^27] hPTH (1-34)-NH2] (H-[Aib]VSEIQL[Nle]HNLGKHLNS[β3hR]ERVE[1Nal]LRKLLQDVHNF-NH2) | 16 | 0.05 | 312 | 312
 |  |  |  | CCCC[C@H](NC(=O)[C@H](CC(C)C)NC(=O)[C@H](CCC(N)=O)NC(=O)[C@@H](NC(=O)[C@H](CCC(=O)O)NC(=O)[C@H](CO)NC(=O)[C@@H](NC(=O)[C@@H](N)CO)C(C)C)[C@@H](C)CC)C(=O)N[C@@H](Cc1c[nH]cn1)C(=O)N[C@@H](CO)C(=O)N[C@@H](CC(C)C)C(=O)NCC(=O)N[C@@H](CCCCN)C(=O)N[C@@H](Cc1c[nH]cn1)C(=O)N[C@@H](CC(C)C)C(=O)N[C@@H](CCCCN)C(=O)N[C@@H](CO)C(=O)N[C@H](CC(=O)N[C@@H](CCC(=O)O)C(=O)N[C@@H](CCCNC(=N)N)C(=O)N[C@H](C(=O)N[C@@H](CCC(=O)O)C(=O)N[C@@H](Cc1cccc2ccccc12)C(=O)N[C@@H](CC(C)C)C(=O)N[C@@H](CCCNC(=N)N)C(=O)N[C@@H](CCCCN)C(=O)N[C@@H](CC(C)C)C(=O)N[C@@H](CC(C)C)C(=O)N[C@@H](CCC(N)=O)C(=O)N[C@@H](CCCNC(=N)N)C(=O)N[C@H](C(=O)N[C@@H](Cc1c[nH]cn1)C(=O)N[C@@H](CCC(=O)O)C(=O)N[C@@H](CCC(=O)O)C(N)=O)C(C)C)C(C)C)[C@@H](C)CC [SEQ ID NO: 44, [Nle^8, Ser^10, Lys^16, β-hIle^18,1-Nal^23, Leu^27, Arg^30, Glu^33, Glu^34] hPTH (1-34)-NH2] (H-SVSEIQL[Nle]HSLGKHLKS[β3hI]ERVE[1Nal]LRKLLQRVHEE-NH2) | 6 | 0.04 | 154 | 
 |  |  |  | CCCC[C@H](NC(=O)[C@H](CC(C)C)NC(=O)[C@H](CCC(N)=O)NC(=O)[C@@H](NC(=O)[C@H](CCC(=O)O)NC(=O)[C@H](CO)NC(=O)[C@@H](NC(=O)C(C)(C)N)C(C)C)[C@@H](C)CC)C(=O)N[C@@H](Cc1c[nH]cn1)C(=O)N[C@@H](CO)C(=O)N[C@@H](CC(C)C)C(=O)NCC(=O)N[C@@H](CCCCN)C(=O)N[C@@H](Cc1c[nH]cn1)C(=O)N[C@@H](CC(C)C)C(=O)N[C@@H](CCCCN)C(=O)N[C@@H](CO)C(=O)N[C@H](CC(=O)N[C@@H](CCC(=O)O)C(=O)N[C@@H](CCCNC(=N)N)C(=O)N[C@H](C(=O)N[C@@H](CCC(=O)O)C(=O)N[C@@H](Cc1cccc2ccccc12)C(=O)N[C@@H](CC(C)C)C(=O)N[C@@H](CCCNC(=N)N)C(=O)N[C@@H](CCCCN)C(=O)N[C@@H](CC(C)C)C(=O)N[C@@H](CC(C)C)C(=O)N[C@@H](CCC(N)=O)C(=O)N[C@@H](CCCNC(=N)N)C(=O)N[C@H](C(N)=O)C(C)C)C(C)C)[C@@H](C)CC [SEQ ID NO: 45, [Aib^1, Nle^8, Ser^10, Lys^16, β-hIle^18,1-Nal^23, Leu^27, Arg^30] hPTH (1-31)-NH2] (H-[Aib]VSEIQL[Nle]HSLGKHLKS[β3hI]ERVE[1Nal]LRKLLQRV-NH2) | 6 | 0.09 | 72 | 
3 | 0.05 |  |  | CCCC[C@H](NC(=O)[C@H](CC(C)C)NC(=O)[C@H](CCC(N)=O)NC(=O)[C@@H](NC(=O)[C@H](CCC(=O)O)NC(=O)[C@H](CO)NC(=O)[C@@H](NC(=O)C(C)(C)N)C(C)C)[C@@H](C)CC)C(=O)N[C@@H](Cc1c[nH]cn1)C(=O)N[C@@H](CC(N)=O)C(=O)N[C@@H](CC(C)C)C(=O)NCC(=O)N[C@@H](CCCCN)C(=O)N[C@@H](Cc1c[nH]cn1)C(=O)N[C@@H](CC(C)C)C(=O)N[C@@H](CC(N)=O)C(=O)N[C@@H](CO)C(=O)N[C@@H](CCOC)C(=O)N[C@@H](CCCCN)CC(=O)N[C@@H](CCCNC(=N)N)C(=O)N[C@H](C(=O)N[C@@H](CCC(=O)O)C(=O)N[C@@H](Cc1cccc2ccccc12)C(=O)N[C@@H](CC(C)C)C(=O)N[C@@H](CCCNC(=N)N)C(=O)N[C@@H](CCCCN)C(=O)N[C@@H](CC(C)C)C(=O)N[C@@H](CC(C)C)C(=O)N[C@@H](CCC(N)=O)C(=O)N[C@@H](CC(=O)O)C(=O)N[C@H](C(=O)N[C@@H](Cc1c[nH]cn1)C(=O)N[C@@H](CC(N)=O)C(=O)N[C@@H](Cc1ccccc1)C(N)=O)C(C)C)C(C)C [SEQ ID NO: 47, [Aib^1, Nle^8, hSer(OMe)^18, β-hLys^19,1-Nal^23, Leu^27] hPTH (1-$$4)-NH2] (H-[Aib]VSEIQL[Nle]HNLGKHLNS[hSer](Me)[β3hK]RVE[1Nal]LRKLLQDVHNF-NH2) |  |  | 51 | 
 |  |  |  | CCCC[C@H](NC(=O)[C@H](CC(C)C)NC(=O)[C@H](CCC(N)=O)NC(=O)[C@@H](NC(=O)[C@H](CCC(=O)O)NC(=O)[C@H](CO)NC(=O)[C@@H](NC(=O)[C@@H](N)CO)C(C)C)[C@@H](C)CC)C(=O)N[C@@H](Cc1c[nH]cn1)C(=O)N[C@@H](CO)C(=O)N[C@@H](CC(C)C)C(=O)NCC(=O)N[C@@H](CCCCN)C(=O)N[C@@H](Cc1c[nH]cn1)C(=O)N[C@@H](CC(C)C)C(=O)N[C@@H](CCCCN)C(=O)N[C@@H](CO)C(=O)N[C@H](CC(=O)N[C@@H](CCC(=O)O)C(=O)N[C@@H](CCCNC(=N)N)C(=O)N[C@H](C(=O)N[C@@H](CCC(=O)O)C(=O)N[C@@H](Cc1cccc2ccccc12)C(=O)N[C@@H](CC(C)C)C(=O)N[C@@H](CCCNC(=N)N)C(=O)N[C@@H](CCCCN)C(=O)N[C@@H](CC(C)C)C(=O)N[C@@H](CC(C)C)C(=O)N[C@@H](CCC(N)=O)C(=O)N[C@@H](CCCNC(=N)N)C(=O)N[C@H](C(N)=O)C(C)C)C(C)C)[C@@H](C)CC [SEQ ID NO: 49, [Nle^8, Ser^10, Lys^16, β-hIle^18,1-Nal^23, Leu^27, Arg^30] hPTH (1-31)-NH2] (H-SVSEIQL[Nle]HSLGKHLKS[β3hI]ERVE[1Nal]LRKLLQRV-NH2) | 7 | 0.08 | 87 | 
 |  | 46 | 0.22 | CCCC[C@H](NC(=O)CCNC(=O)[C@H](CC(N)=O)NC(=O)[C@H](CC(C)C)NC(=O)[C@H](Cc1c[nH]cn1)NC(=O)[C@H](CCCCN)NC(=O)CNC(=O)[C@H](CC(C)C)NC(=O)[C@H](CC(N)=O)NC(=O)[C@H](Cc1c[nH]cn1)NC(=O)[C@H](CCCC)NC(=O)[C@H](CC(C)C)NC(=O)[C@H](CCC(N)=O)NC(=O)[C@@H](NC(=O)[C@H](CCC(=O)O)NC(=O)[C@H](CO)NC(=O)[C@@H](NC(=O)C(C)(C)N)C(C)C)[C@@H](C)CC)C(=O)N[C@@H](CCC(=O)O)C(=O)N[C@@H](CCCNC(=N)N)C(=O)N[C@H](C(=O)N[C@@H](CCC(=O)O)C(=O)N[C@@H](Cc1cccc2ccccc12)C(=O)N[C@@H](CC(C)C)C(=O)N[C@@H](CCCNC(=N)N)C(=O)N[C@@H](CCCCN)C(=O)N[C@@H](CCCCN)C(=O)N[C@@H](CC(C)C)C(=O)N[C@@H](CCC(N)=O)C(=O)N[C@@H](CC(=O)O)C(=O)N[C@H](C(=O)N[C@@H](Cc1c[nH]cn1)C(=O)N[C@@H](CC(N)=O)C(=O)N[C@@H](Cc1ccccc1)C(N)=O)C(C)C)C(C)C [SEQ ID NO: 55, [Aib^1, Nle^8,18, β-Ala^17,1-Nal^23] hPTH (1-34)-NH2] (H-[Aib]VSEIQL[Nle]HNLGKHLN[βAla][Nle]ERVE[1Nal]LRKKLQDVHNF-NH2) |  |  |  | 213
